Data: patent US9481630B2, “Ingenane-type diterpene compound, and pharmaceutical composition for treating or preventing viral infectious diseases containing same” (priority 2011, dated 2016)

Test system: NK92 cells
Test: IFN-γ production in NK92 cells, released IFN-γ in culture supernatant by ELISA
Assay type: cell-based, human
Conditions: for effect on IFN-γ production: 10 nM, similar to the same dose of PMA (positive control)
Procedure: NK92 cells (human NK lymphoma) were obtained from American Type Culture Collection. NK92 cells were kept in α-MEM (Invitrogen, US) containing 20% fetal bovine serum (Invitrogen), 2 mM […], […] (Invitrogen), and were replenished with 100 U/mL IL-2 (Peprotech, US). NK92 cell culture was carried out in a culture medium at 37° C. under 5% CO2 humidity atmosphere. The amount of human IFN-γ was analyzed according to the protocol of a supplier using an assay kit (Endogen, Woburn, US).
In order to detect IFN-γ, 2×10^5 NK92 cell/mL was inoculated in a 48-well culture plate, and was cultured for 12 hours with each isolated compounds in an α-MEM medium containing 20% FBS and IL-2. The IFN-γ released in the culture supernatant was analyzed using an ELISA method. The absorbance was measured on a microplate reader and the treatment and the analysis for all the compounds were repeated twice. The cell toxicity of the compound-treated NK92 cells was evaluated through an MTT analysis.

Compound: CCCCCCCCCCCC(=O)O[C@@]12C[C@@H](C)[C@]34C=C(C)[C@H](O)[C@@]3(O)[C@H](OC(=O)C(C)C(C)C)C(C)=C[C@H](C4=O)C1C2(C)C (stereo partly drawn) [Compound 1, 5-O-(2,3-dimethylbutanoyl)-13-O-dodecanoyl-20-O-deoxyingenol]
- activity for inducing IFN-γ production (1.25 μM): had activity for inducing IFN-γ production

Compound: CCCCCCCCCC(=O)OCC1=C[C@@H]2C(=O)[C@]3(C=C(C)[C@H](O)[C@@]3(O)[C@@H]1O)[C@H](C)C[C@@H]1[C@H]2C1(C)C [Compound 3, 20-O-decanoylingenol]
- activity for inducing IFN-γ production (100 nM): had activity for inducing IFN-γ production

Compound: CCCCC/C=C\C=C\C(=O)O[C@H]1C(C)=C[C@]23C(=O)[C@@H](C=C(COC(C)=O)[C@@H](O)[C@]12O)[C@H]1[C@@H](C[C@H]3C)C1(C)C [Compound 4, 20-O-acetylingenol-3-O-(2′E,4′Z) decadienate]
- effect on IFN-γ production: significant effects on the IFN-γ production

Compound: CCCCCCCCCCCC(=O)O[C@@]12C[C@@H](C)[C@]34C=C(C)[C@H](OC(=O)C(C)C(C)C)[C@@]3(O)[C@H](O)C(CO)=C[C@H](C4=O)[C@@H]1C2(C)C (stereo partly drawn) [Compound 6, 3-O-(2,3-dimethylbutanoyl)-13-O-dodecanoylingenol]
- effect on IFN-γ production: significant effects on the IFN-γ production

Compound: C[C@H](C/C=C/C(C)(C)O)[C@@H]1CC[C@]2(C)C3=C(CC[C@@]12C)[C@@]1(C)CC[C@H](O)C(C)(C)C1CC3 (stereo partly drawn) [Compound 8, (20R,23E)-eupha-8,23-diene-3b,25-diol]
- activity for inducing IFN-γ production (5 μM): had activity for inducing IFN-γ production

Compound: gansuiphorin A [Compound 5]
- activity for inducing IFN-γ production (5 μM): had activity for inducing IFN-γ production
